Structures can show the parent of a compound that is named as a salt.
How the values were obtained:
CYP3A4 = CYP3A4 (Homo sapiens, UniProt P08684); assay: Cytochrome P450 (CYP450) Inhibition Assay, CYP3A4 (Vivid fluorescence, BOMCC substrate); details: for inhibition at 10 µM: human, P450 Baculosomes (recombinant CYP3A4), probe BOMCC (Vivid substrate)
Sequence of CYP3A4 (P08684 whole entry): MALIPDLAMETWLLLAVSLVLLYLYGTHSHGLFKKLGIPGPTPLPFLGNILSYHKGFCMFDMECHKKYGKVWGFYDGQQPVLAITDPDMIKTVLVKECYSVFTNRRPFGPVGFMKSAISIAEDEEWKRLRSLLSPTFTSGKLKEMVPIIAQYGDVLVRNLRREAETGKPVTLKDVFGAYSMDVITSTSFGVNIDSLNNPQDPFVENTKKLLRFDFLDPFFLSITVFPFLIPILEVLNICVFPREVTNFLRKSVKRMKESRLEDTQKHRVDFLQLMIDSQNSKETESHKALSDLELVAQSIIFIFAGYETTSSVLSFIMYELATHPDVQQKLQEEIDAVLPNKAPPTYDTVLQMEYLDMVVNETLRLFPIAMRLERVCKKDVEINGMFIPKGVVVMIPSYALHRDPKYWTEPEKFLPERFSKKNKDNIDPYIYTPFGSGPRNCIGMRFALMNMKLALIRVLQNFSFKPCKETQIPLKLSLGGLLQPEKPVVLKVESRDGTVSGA

SMILES | melting point | inhibition at 10 µM (CYP3A4) | % Inhibition of CYP3A4 (CYP3A4; CYP3A4 isozyme, at 10 μM)
O=C1N(Cc2cccnc2C(F)(F)F)c2ccccc2C12COc1cc3c(cc12)OCCO3 (stereo not drawn) [Example 5.10, 1′-{[2-(trifluoromethyl)pyridin-3-yl]methyl}-2,3-dihydrospiro[furo[2,3-g][1,4]benzodioxine-8,3′-indol]-2′(1′H)-one] | 219 to 220 °C | < 50% | –
O=C1N(Cc2cnccc2C(F)(F)F)c2ccccc2C12COc1cc3c(cc12)OCCO3 (stereo not drawn) [Example 5.12, 1′-{[4-(trifluoromethyl)pyridin-3-yl]methyl}-2,3-dihydrospiro[furo[2,3-g][1,4]benzodioxine-8,3′-indol]-2′(1′H)-one] | 131 to 132 °C | > 50% | –
O=C1N(C[C@H]2COCCO2)c2ccccc2C12COc1cc3c(cc12)OCCCO3 (stereo partly drawn) [Example 8.13, 1′-[(2S)-1,4-dioxan-2-ylmethyl]-3,4-dihydro-2H-spiro[furo[2,3-h][1,5]benzodioxepine-9,3′-indol]-2′(1′H)-one] | 137 to 139 °C | < 50% | –
CN1C(=O)C2(COc3cc4c(cc32)OCCO4)c2c(C(=O)Oc3ccccc3)cccc21 (stereo not drawn) [Example 2.53, phenyl 1′-methyl-2′-oxo-1′,2,2′,3-tetrahydrospiro[furo[2,3-g][1,4]benzodioxine-8,3′-indole]-4′-carboxylate] | 184 to 186 °C | > 50% | –
Cl.O=C1N(Cc2ccccn2)c2ccccc2C12COc1cc3c(cc12)OCCO3 (stereo not drawn) [Example 4.42, 1′-(pyridin-2-ylmethyl)-2,3-dihydrospiro[furo[2,3-g][1,4]benzodioxine-8,3′-indol]-2′(1′H)-one hydrochloride] | 206 to 208 °C | – | A (percent inhibition of less than 50% at 10 μM)
O=C1N(C(c2ccccc2)c2ccccc2)c2cc(F)ccc2C12COc1cc3c(cc12)CCO3 (stereo not drawn) [Example 2.5, 1′-(diphenylmethyl)-6′-fluoro-5,6-dihydrospiro[benzo[1,2-b:5,4-b′]difuran-3,3′-indol]-2′(1′H)-one] | 194 to 196 °C | – | –
C[n+]1c(Cl)c[nH]c1CN1C(=O)C2(COc3cc4c(cc32)OCCO4)c2ccccc21 (stereo not drawn) [Example 4.39, 1′-[(5-chloro-1-methyl-1H-imidazol-2-yl)methyl]-2,3-dihydrospiro[furo[2,3-g][1,4]benzodioxine-8,3′-indol]-2′(1′H)-one] | 91 to 95 °C | – | –
O=C1N(C(c2ccccc2)c2ccccc2)c2ccccc2C12COc1cc3c(cc12)CCCO3 (stereo not drawn) [Example 2.12, 1′-(diphenylmethyl)-6,7-dihydro-5H-spiro[furo[3,2-g]chromene-3,3′-indol]-2′(1′H)-one] | 208 to 211 °C | – | –
CC(C)N1CCC(CN2C(=O)C3(COc4cc5c(cc43)CCO5)c3ccccc32)CC1.Cl (stereo not drawn) | 167 °C (dec.) | – | –
CCN1CCC(CN2C(=O)C3(COc4cc5c(cc43)CCO5)c3ccccc32)CC1.Cl (stereo not drawn) | 135 °C (dec.) | – | –
CN1CCN(CN2C(=O)C3(COc4cc5c(cc43)OCO5)c3ccccc32)CC1 (stereo not drawn) (as salt: chloride) [Example 11.63, 1′-[(4-methylpiperazin-1-yl)methyl]spiro[furo[2,3-f][1,3]benzodioxole-7,3′-indol]-2′(1′H)-one hydrogen chloride] | > 175 °C (dec.) | – | –
O=C1N(C(c2ccccc2)c2ccccc2)c2ccccc2C12COc1cc3c(cc12)OCCCO3 (stereo not drawn) [Example 2.13, 1′-(diphenylmethyl)-3,4-dihydro-2H-spiro[furo[2,3-h][1,5]benzodioxepine-9,3′-indol]-2′(1′H)-one] | 165 to 168 °C | – | –
N#CCN1C(=O)C2(COc3cc4c(cc32)OCCO4)c2ccccc21 (stereo not drawn) [Example 5.24, (2′-oxo-2,3-dihydrospiro[furo[2,3-g][1,4]benzodioxine-8,3′-indol]-1′(2′H)-yl)acetonitrile] | 161 to 162 °C | – | –
CN1CCC(CN2C(=O)C3(COc4cc(F)c(F)cc43)c3ccccc32)CC1 (stereo not drawn) (as salt: hydrochloride) [Example 11.112, 5,6-difluoro-1′-[(1-methylpiperidin-4-yl)methyl]spiro[1-benzofuran-3,3′-indol]-2′(1′H)-one hydrochloride] | 162 to 164 °C | – | –
O=C1N(C(c2ccccc2)c2ccccc2)c2ccc(F)cc2C12COc1cc3c(cc12)CCO3 (stereo not drawn) [Example 2.4, 1′-(diphenylmethyl)-5′-fluoro-5,6-dihydrospiro[benzo[1,2-b:5,4-b′]difuran-3,3′-indol]-2′(1′H)-one] | 228 to 229 °C | – | –
CN1CCN(CN2C(=O)C3(COc4cc5c(cc43)CCO5)c3ccccc32)CC1 (stereo not drawn) (as salt: hydrochloride) | 181 °C (dec.) | – | –
CC(C)NC(=O)N1CCC(CN2C(=O)C3(COc4cc5c(cc43)CCO5)c3ccccc32)C1 (stereo not drawn) [Example 11.62, N-(1-methylethyl)-3-[(2′-oxo-5,6-dihydrospiro[benzo[1,2-b:5,4-b′]difuran-3,3′-indol]-1′(2′H)-yl)methyl]pyrrolidine-1-carboxamide] | 107 to 115 °C | – | –
O=C1N(C[C@@H]2CCCN2)c2ccccc2C12COc1cc3c(cc12)CCO3 (stereo partly drawn) [Example 11.11, 1′-[(2S)-pyrrolidin-2-ylmethyl]-5,6-dihydrospiro[benzo[1,2-b:5,4-b′]difuran-3,3′-indol]-2′(1′H)-one] | 83 to 86 °C | – | –
Cc1ccc2c(c1)C1(COc3cc4c(cc31)OCCO4)C(=O)N2Cc1ncccc1C(F)(F)F (stereo not drawn) [Example 4.115, 5′-methyl-1′-{[3-(trifluoromethyl)pyridin-2-yl]methyl}-2,3-dihydrospiro[furo[2,3-g][1,4]benzodioxine-8,3′-indol]-2′(1′H)-one] | 137 to 139 °C | – | –
Cc1noc2cc3c(cc12)C1(CO3)C(=O)N(Cc2nc(C(=O)N(C)C)co2)c2ccccc21 (stereo not drawn) [Example 13.9, N,N-dimethyl-2-[(3-methyl-2′-oxospiro[furo[3,2-f][1,2]benzisoxazole-5,3′-indol]-1′(2′H)-yl)methyl]-1,3-oxazole-4-carboxamide] | 87 to 89 °C | – | –
CCCCCN1C(=O)[C@@]2(COc3cc4c(cc32)OCCO4)c2ccccc21 [Example 7.3, (S)-1-pentyl-2,3-dihydrospiro[furo[2,3-g][1,4]benzodioxine-8,3′-indol]-2′(1′H)-one] | 111 to 113 °C | – | –
O=C(O)CN1C(=O)C2(COc3cc4c(cc32)OCCO4)c2ccccc21 (stereo not drawn) [Example 11.76, (2′-oxo-2,3-dihydrospiro[furo[2,3-g][1,4]benzodioxine-8,3′-indol]-1′(2′H)-yl)acetic acid] | 193 to 196 °C | – | –

Now from value to compound, other results behind:

melting point | inhibition at 10 µM (CYP3A4) | SMILES | % Inhibition of CYP3A4 (CYP3A4; CYP3A4 isozyme, at 10 μM)
198 to 201 °C | > 50% | CN1C(=O)C2(COc3cc4c(cc32)OCCO4)c2c(Oc3ccc(C(F)(F)F)cc3)cccc21 (stereo not drawn) [Example 16.56, 1′-methyl-4′-[4-(trifluoromethyl)phenoxy]-2,3-dihydrospiro[furo[2,3-g][1,4]benzodioxine-8,3′-indol]-2′(1′H)-one] | –
237 to 239 °C | < 50% | COCC(=O)Nc1cccc2c1C1(COc3cc4c(cc31)OCCO4)C(=O)N2C (stereo not drawn) [Example 16.28, 2-methoxy-N-(1′-methyl-2′-oxo-1′,2,2′,3-tetrahydrospiro[furo[2,3-g][1,4]benzodioxine-8,3′-indol]-4′-yl)acetamide] | –
234 to 236 °C | < 50% | CN1C(=O)C2(COc3cc4c(cc32)OCCO4)c2c(NC(=O)C3CCC3)cccc21 (stereo not drawn) [Example 16.20, N-(1′-methyl-2′-oxo-1′,2,2′,3-tetrahydrospiro[furo[2,3-g][1,4]benzodioxine-8,3′-indol]-4′-yl)cyclobutanecarboxamide] | –
55 to 58 °C | > 50% | COc1ccc(Oc2cccc3c2C2(COc4cc5c(cc42)OCCO5)C(=O)N3C)cc1 (stereo not drawn) [Example 16.84, 4′-(4-methoxyphenoxy)-1′-methyl-2,3-dihydrospiro[furo[2,3-g][1,4]benzodioxine-8,3′-indol]-2′(1′H)-one] | –
128 to 129 °C | < 50% | CN1C(=O)C2(COc3cc4c(cc32)OCCO4)c2c(C(=O)NC3CCC3)cccc21 (stereo not drawn) [Example 16.77, N-cyclobutyl-1′-methyl-2′-oxo-1′,2,2′,3-tetrahydrospiro[furo[2,3-g][1,4]benzodioxine-8,3′-indole]-4′-carboxamide] | –
122 to 123 °C | < 50% | COCCOCC(=O)Nc1cccc2c1C1(COc3cc4c(cc31)OCCO4)C(=O)N2C (stereo not drawn) [Example 16.34, 2-(2-methoxyethoxy)-N-(1′-methyl-2′-oxo-1′,2,2′,3-tetrahydrospiro[furo[2,3-g][1,4]benzodioxine-8,3′-indol]-4′-yl)acetamide] | –
198 to 200 °C | > 50% | CN1C(=O)C2(COc3cc4c(cc32)OCCO4)c2c(OCc3ccccc3)cccc21 (stereo not drawn) [Example 16.57, 4′-(benzyloxy)-1′-methyl-2,3-dihydrospiro[furo[2,3-g][1,4]benzodioxine-8,3′-indol]-2′(1′H)-one] | –
228 to 229 °C | > 50% | CN1C(=O)C2(COc3cc4c(cc32)OCCO4)c2c(-c3ccc4ccc(=O)oc4c3)cccc21 (stereo not drawn) [Example 16.15, 1′-methyl-4′-(2-oxo-2H-chromen-7-yl)-2,3-dihydrospiro[furo[2,3-g][1,4]benzodioxine-8,3′-indol]-2′(1′H)-one] | –
153 to 162 °C | – | O=C1N(Cc2ccc(N[C@@H]3CCNC3)cc2)c2ccccc2C12COc1cc(F)c(F)cc12 (stereo partly drawn) (as salt: hydrochloride) [Example 33.2, 5,6-difluoro-1′-{4-[(3R)-pyrrolidin-3-ylamino]benzyl}spiro[1-benzofuran-3,3′-indol]-2′(1′H)-one hydrochloride] | –
120 to 122 °C | – | CNC(=O)c1cccc2c1C1(COc3cc4c(cc31)OCCO4)C(=O)N2C (stereo not drawn) [Example 16.76, N,1′-dimethyl-2′-oxo-1′,2,2′,3-tetrahydrospiro[furo[2,3-g][1,4]benzodioxine-8,3′-indole]-4′-carboxamide] | –
